{"source": "paper PMC5434554", "about": "“Structural similarities and functional differences clarify evolutionary relationships between tRNA healing enzymes and the myelin enzyme CNPase” (BMC Biochemistry, 2017)", "assay_in_all_cases": "thermal shift assay, SYPRO Orange", "format_in_all_cases": "binding", "key": {"ScTrl1 CPDase": {"target": "T1, ScTrl1 CPDase (Saccharomyces cerevisiae, UniProt P09880)", "T1 construct": "gene TRL1; not the N+ or N- variants; N-terminal His6-3C tag cleaved; E. coli Rosetta(DE3); monomer", "T1 sequence (P09880 561-827 limits assumed)": "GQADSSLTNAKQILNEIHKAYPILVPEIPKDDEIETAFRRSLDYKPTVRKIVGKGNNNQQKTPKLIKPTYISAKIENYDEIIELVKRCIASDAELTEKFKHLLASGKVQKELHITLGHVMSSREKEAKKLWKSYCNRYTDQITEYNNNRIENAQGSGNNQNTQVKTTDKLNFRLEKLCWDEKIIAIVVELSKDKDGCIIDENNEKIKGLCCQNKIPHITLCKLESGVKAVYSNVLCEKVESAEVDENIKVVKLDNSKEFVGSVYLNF", "conditions": "1000 µM; 50 mM HEPES pH 7.5, 150 mM NaCl, 1 mM ligand; ligand-free reference in the 1st table, row 6", "text": "thermal shift assay, SYPRO Orange on ScTrl1 CPDase"}, "BfPNK/CPDase": {"target": "T2, BfPNK/CPDase (Branchiostoma floridae, UniProt A0A9J7HK91)", "T2 construct": "gene LOC118405679; full length; N-terminal His6-3C tag cleaved; from E. coli Rosetta(DE3); monomer under reducing conditions", "T2 sequence (A0A9J7HK91 entry or part of it)": "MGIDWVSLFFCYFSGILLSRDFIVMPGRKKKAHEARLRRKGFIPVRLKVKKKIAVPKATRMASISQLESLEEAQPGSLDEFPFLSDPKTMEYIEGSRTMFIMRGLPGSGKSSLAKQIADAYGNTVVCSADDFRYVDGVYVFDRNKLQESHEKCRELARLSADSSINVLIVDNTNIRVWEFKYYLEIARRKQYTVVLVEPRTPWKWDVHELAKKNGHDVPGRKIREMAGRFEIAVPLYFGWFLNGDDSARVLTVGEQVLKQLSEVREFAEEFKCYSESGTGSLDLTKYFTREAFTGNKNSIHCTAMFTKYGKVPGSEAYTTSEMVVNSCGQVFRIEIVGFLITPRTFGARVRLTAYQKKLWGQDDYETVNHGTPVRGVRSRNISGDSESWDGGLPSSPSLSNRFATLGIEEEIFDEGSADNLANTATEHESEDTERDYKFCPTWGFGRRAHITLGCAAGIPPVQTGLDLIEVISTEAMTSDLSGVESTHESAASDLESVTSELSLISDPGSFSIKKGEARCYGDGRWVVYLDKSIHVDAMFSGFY", "conditions": "1000 µM; 50 mM HEPES pH 7.5, 150 mM NaCl, 1 mM ligand; ligand-free reference in the 1st table, row 9", "text": "thermal shift assay, SYPRO Orange on BfPNK/CPDase"}, "ScTrl1 PNK/CPDase": {"target": "T3, ScTrl1 PNK/CPDase (Saccharomyces cerevisiae, UniProt P09880)", "T3 construct": "gene TRL1; PNK + CPDase domains of Trl1 (C-terminal part, ligase domain absent); N-terminal His6-3C tag cleaved; E. coli Rosetta(DE3); monomer", "T3 sequence (P09880 389-827 limits assumed)": "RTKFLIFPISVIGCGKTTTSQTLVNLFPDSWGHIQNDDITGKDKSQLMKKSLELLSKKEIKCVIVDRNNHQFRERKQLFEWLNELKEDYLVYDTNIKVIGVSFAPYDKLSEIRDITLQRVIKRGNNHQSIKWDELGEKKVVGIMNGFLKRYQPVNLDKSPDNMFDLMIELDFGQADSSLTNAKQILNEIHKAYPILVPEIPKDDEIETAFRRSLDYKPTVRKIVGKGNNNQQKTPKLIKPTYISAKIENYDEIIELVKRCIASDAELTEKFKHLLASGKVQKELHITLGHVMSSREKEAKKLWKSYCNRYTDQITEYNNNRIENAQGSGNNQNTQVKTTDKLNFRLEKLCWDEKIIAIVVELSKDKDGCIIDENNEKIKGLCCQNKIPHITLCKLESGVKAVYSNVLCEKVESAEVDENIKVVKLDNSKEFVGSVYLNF", "conditions": "1000 µM; 50 mM HEPES pH 7.5, 150 mM NaCl, 1 mM ligand; ligand-free reference in the 1st table, row 3", "text": "thermal shift assay, SYPRO Orange on ScTrl1 PNK/CPDase"}}}
{"smiles": "NC(=O)c1ccc[n+]([C@@H]2O[C@H](COP(=O)(O)OP(=O)(O)OC[C@H]3O[C@@H](n4cnc5c(N)ncnc54)[C@@H]4OP(=O)(O)O[C@@H]43)[C@@H](O)[C@H]2O)c1", "note": "[2′,3′-cNADP^+]", "values": [{"measurement": "Tm (°C)", "setting": "ScTrl1 CPDase", "result": 72, "unit": "°C"}, {"measurement": "Tm (°C)", "setting": "BfPNK/CPDase", "result": 48, "unit": "°C"}, {"measurement": "Tm (°C)", "setting": "ScTrl1 PNK/CPDase", "result": 63, "unit": "°C"}]}
